Like-named read-outs stand apart in the source and are kept apart here.
Biological target: T1, Androgen Receptor (Homo sapiens, UniProt P10275)
T1 construct: endogenous in cells; host or cells: VCaP cells
T1 sequence (P10275 1-920): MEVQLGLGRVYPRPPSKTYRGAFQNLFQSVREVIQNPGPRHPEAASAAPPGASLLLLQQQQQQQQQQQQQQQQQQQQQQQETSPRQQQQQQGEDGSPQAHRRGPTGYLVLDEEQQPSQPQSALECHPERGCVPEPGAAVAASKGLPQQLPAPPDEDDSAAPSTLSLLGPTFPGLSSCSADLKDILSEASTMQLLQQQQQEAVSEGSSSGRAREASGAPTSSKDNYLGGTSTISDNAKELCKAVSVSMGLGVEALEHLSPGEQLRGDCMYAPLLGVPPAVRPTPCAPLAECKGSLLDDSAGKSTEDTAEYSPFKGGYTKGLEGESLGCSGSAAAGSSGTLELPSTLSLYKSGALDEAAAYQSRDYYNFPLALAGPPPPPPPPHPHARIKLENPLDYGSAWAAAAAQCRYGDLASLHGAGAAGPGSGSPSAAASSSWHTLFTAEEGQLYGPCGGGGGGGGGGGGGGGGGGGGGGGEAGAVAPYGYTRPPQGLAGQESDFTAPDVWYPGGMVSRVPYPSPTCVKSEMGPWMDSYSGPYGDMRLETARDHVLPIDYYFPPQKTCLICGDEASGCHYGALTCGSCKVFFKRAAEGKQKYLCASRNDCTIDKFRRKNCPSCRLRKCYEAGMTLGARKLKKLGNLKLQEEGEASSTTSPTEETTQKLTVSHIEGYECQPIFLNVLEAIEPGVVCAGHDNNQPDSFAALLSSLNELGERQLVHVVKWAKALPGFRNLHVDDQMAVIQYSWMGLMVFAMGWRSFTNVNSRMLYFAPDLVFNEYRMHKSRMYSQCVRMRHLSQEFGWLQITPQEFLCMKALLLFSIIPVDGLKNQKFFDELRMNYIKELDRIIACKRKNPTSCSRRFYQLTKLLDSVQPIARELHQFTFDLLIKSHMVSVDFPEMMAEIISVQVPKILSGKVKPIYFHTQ
Assay: Androgen Receptor ELISA assay (PathScan AR ELISA) in VCaP cells: AR degradation, Dmax and DC50
Type: cell-based
Conditions: for DC50: read-out: VCaP DC50; for Dmax: VCaP, read-out: VCaP Dmax (%)
How it was run: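 VCaP cells in phenol red-free RPMI with 5% charcoal-stripped FBS were grown at least 3 days, then given compound as 7 half-log doses in 0.1% DMSO with 0.1 nM R1881 for 24 h. Lysates went into a sandwich AR ELISA with TMB read at 450 nm.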

Dmax (VCaP cells, Table 36)	SMILES	DC50 (VCaP cells, Table 36)	Dmax
26 to 50%	Cc1ncsc1-c1ccc([C@H](C)NC(=O)[C@@H]2C[C@@H](O)CN2C(=O)[C@@H](NC(=O)CC2(CN3CCN(c4ccc(C(=O)N[C@H]5C(C)(C)[C@H](Oc6ccc(C#N)c(Cl)c6)C5(C)C)cn4)CC3)COC2)C(C)(C)C)cc1 [Example 851, N-((1r,3r)-3-(3-chloro-4-cyanophenoxy)-2,2,4,4-tetramethylcyclobutyl)-6-(4-((3-(2-(((S)-1-((2S,4R)-4-hydroxy-2-(((S)-1-(4-(4-methylthiazol-5-yl)phenyl)ethyl)carbamoyl)pyrrolidin-1-yl)-3,3-dimethyl-1-oxobutan-2-yl)amino)-2-oxoethyl)oxetan-3-yl)methyl)piperazin-1-yl)nicotinamide]	< 50 nM	–
–	CC(=O)O[C@@H]1C[C@@H](C(=O)N[C@@H](C)c2ccc(-c3scnc3C)cc2)N(C(=O)[C@H](C(C)C)N2Cc3cc(OCCN4CCN(c5ccc(C(=O)N[C@H]6C(C)(C)[C@H](Oc7ccc(C#N)c(Cl)c7)C6(C)C)cn5)CC4)ccc3C2=O)C1 [Example 852, (3R,5S)-1-((S)-2-(5-(2-(4-(5-(((1r,3r)-3-(3-chloro-4-cyanophenoxy)-2,2,4,4-tetramethylcyclobutyl)carbamoyl)pyridin-2-yl)piperazin-1-yl)ethoxy)-1-oxoisoindolin-2-yl)-3-methylbutanoyl)-5-(((S)-1-(4-(4-methylthiazol-5-yl)phenyl)ethyl)carbamoyl)pyrrolidin-3-yl acetate]	< 50 nM	51 to 70%
–	Cc1ncsc1-c1ccc([C@H](C)NC(=O)[C@@H]2C[C@@H](O)CN2C(=O)[C@@H](NC(=O)CN2CCN(CC3CCN(c4ccc(C(=O)N[C@H]5C(C)(C)[C@H](Oc6ccc(C#N)c(Cl)c6)C5(C)C)cn4)CC3)CC2)C(C)(C)C)cc1 [Example 853, N-((1r,3r)-3-(3-chloro-4-cyanophenoxy)-2,2,4,4-tetramethylcyclobutyl)-6-(4-((4-(2-(((S)-1-((2S,4R)-4-hydroxy-2-(((S)-1-(4-(4-methylthiazol-5-yl)phenyl)ethyl)carbamoyl)pyrrolidin-1-yl)-3,3-dimethyl-1-oxobutan-2-yl)amino)-2-oxoethyl)piperazin-1-yl)methyl)piperidin-1-yl) nicotinamide]	< 50 nM	> 71%
–	Cc1ncsc1-c1ccc([C@H](CO)NC(=O)[C@@H]2C[C@@H](O)CN2C(=O)[C@@H](NC(=O)CN2CCN(CC3CCN(c4ccc(C(=O)N[C@H]5C(C)(C)[C@H](Oc6ccc(C#N)c(Cl)c6)C5(C)C)cn4)CC3)CC2)C(C)(C)C)cc1 [Example 854, N-((1r,3r)-3-(3-chloro-4-cyanophenoxy)-2,2,4,4-tetramethylcyclobutyl)-6-(4-((4-(2-(((S)-1-((2S,4R)-4-hydroxy-2-(((R)-2-hydroxy-1-(4-(4-methylthiazol-5-yl)phenyl)ethyl)carbamoyl)pyrrolidin-1-yl)-3,3-dimethyl-1-oxobutan-2-yl)amino)-2-oxoethyl)piperazin-1-yl)methyl)piperidin-1-yl)nicotinamide]	< 50 nM	> 71%
> 71%	Cc1ncsc1-c1ccc([C@H](C)NC(=O)[C@@H]2C[C@@H](O)CN2C(=O)[C@@H](NC(=O)COCCN2CCN(c3ccc(C(=O)N[C@H]4C(C)(C)[C@H](Oc5ccc(C#N)c(C(F)(F)F)c5)C4(C)C)cn3)CC2)C(C)(C)C)cc1 [Example 855, N-((1r,3r)-3-(4-cyano-3-(trifluoromethyl)phenoxyl)-2,2,4,4-tetramethylcyclobutyl)-6-(4-(2-(2-(((S)-1-((2S, 4R)-4-hyrdoxy-2-(((S)-1-(4-(4-methylthiazol-5-yl)phenyl)ethyl)carbamoyl)pyrrolidin-1-yl)-3,3-dimethyl-1-oxobutan-2-yl)amino)-2-oxoethoxy)ethyl)piperazin-1-yl) nicotinamide]	< 50 nM	–

Source: patent publication US11427548B2 (Arvinas Operations, Inc., priority 2015, dated 2022)
